Among the test systems are SR; U-251; CAKI-1; ACHN; A549; SN12C; SNB-75; NCI-H226; CCRF-CEM; UO-31; IGROV-1; UACC-257; RPMI-8226; M19-MEL; OVCAR-5; SK-OV-3; A498; SNB-19; SW-620.
Holding throughout (test): NCI-60 cell line screen, 48 h

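Step 1: Grow cells in 96-well plates. Step 2: Expose to compound for 48 hours at 5 concentrations. Step 3: Interpolate endpoints linearly; if unreached, use highest concentration. Here, GI50 denotes the concentration required for 50% inhibition of growth.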 Activity calls are given as the source filed them. Cut-off read from the data, not from the text of the source: active = GI50 up to about 1.1 µM and inactive = higher.

As to `C/C(CC(=O)Nc1cccc(C)c1C)=N\NC(N)=S`, the GI50 was 26.2 µM (inactive) in the assay with SR; > 100 µM (inactive) in the assay with U-251; > 100 µM (inactive) with CAKI-1; > 100 µM (inactive) in the assay on ACHN; > 100 µM (inactive) in the assay with A549; > 100 µM (inactive) with SN12C. Moreover, the GI50 in the assay with SNB-75 is > 100 µM (inactive); in the assay on NCI-H226, > 100 µM (inactive); in the assay with CCRF-CEM, 74.3 µM (inactive); in the assay with UO-31, > 100 µM (inactive); with IGROV-1 it was > 100 µM (inactive); in the assay with UACC-257 it was > 100 µM (inactive). The GI50 in the assay on RPMI-8226 was 40.8 µM (inactive); in the assay with M19-MEL, > 100 µM (inactive); in the assay with OVCAR-5 it was > 100 µM (inactive); in the assay on SK-OV-3, > 100 µM (inactive); in the assay with A498 it was > 100 µM (inactive); in the assay with SNB-19 it was > 100 µM (inactive).

As to `N#C/C(=C/c1ccc([N+](=O)[O-])o1)c1ccccc1`, the GI50 in the assay with SR, in the assay on U-251, in the assay on CAKI-1, in the assay with ACHN, in the assay on A549 and with SN12C was > 100 µM (inactive) each time. Also, the GI50 in the assay with SNB-75 is 97.7 µM (inactive); with NCI-H226 it was > 100 µM (inactive); with CCRF-CEM it was > 100 µM (inactive); with UO-31, > 100 µM (inactive); with UACC-257 it was > 100 µM (inactive); in the assay on RPMI-8226, > 100 µM (inactive). The GI50 in the assay with M19-MEL, in the assay on OVCAR-5, with SK-OV-3, in the assay on SW-620 and in the assay on SNB-19 was > 100 µM (inactive) in each case.

Turning to `S=P(c1ccccc1)(c1ccccc1)C1(C2(P(=S)(c3ccccc3)c3ccccc3)CC2)CC1`, the GI50 in the assay on SR, in the assay on U-251, in the assay on ACHN, in the assay on A549, in the assay on SN12C and in the assay on SNB-75 was > 100 µM (inactive) each time. Further, the GI50 in the assay on NCI-H226, in the assay on CCRF-CEM, with UO-31, in the assay on IGROV-1, in the assay on M19-MEL and in the assay on OVCAR-5 was > 100 µM (inactive) each time. The GI50 with SW-620 and in the assay on SNB-19 was > 100 µM (inactive) each time.

Regarding `CC(C)c1ccc(C2C3=C(N=C4SCC(=O)N42)C(=O)c2ccccc23)cc1` (centres undefined), the GI50 was 74 µM (inactive) in the assay with U-251; 99.1 µM (inactive) in the assay on CAKI-1; 73.1 µM (inactive) with ACHN; 58.9 µM (inactive) in the assay on A549; 41 µM (inactive) with SN12C; 22.3 µM (inactive) in the assay on SNB-75. Also, the GI50 with NCI-H226 is 51.4 µM (inactive); with CCRF-CEM it was 57.3 µM (inactive); in the assay on UO-31 it was 5.6 µM (inactive); in the assay with IGROV-1 it was > 100 µM (inactive); in the assay with UACC-257, > 100 µM (inactive); in the assay with RPMI-8226, 43.3 µM (inactive). Moreover, the GI50 is 83.4 µM (inactive) in the assay on M19-MEL; > 100 µM (inactive) with OVCAR-5; > 100 µM (inactive) in the assay with SK-OV-3; > 100 µM (inactive) in the assay on A498; > 100 µM (inactive) in the assay on SW-620; 64.9 µM (inactive) in the assay on SNB-19.

For `C#CCN(N=O)C(=O)NCCCCC(NC(=O)OCc1ccccc1)C(=O)OCc1ccccc1` (centres undefined), the GI50 in the assay with U-251 was 48.9 µM (inactive); in the assay on CAKI-1 it was 24 µM (inactive); with ACHN, 61.5 µM (inactive); in the assay on SN12C it was 37.8 µM (inactive); in the assay with SNB-75, 46.3 µM (inactive); with NCI-H226 it was > 100 µM (inactive). Besides, the GI50 is 19.3 µM (inactive) with CCRF-CEM; > 100 µM (inactive) in the assay with UO-31; 76 µM (inactive) in the assay on IGROV-1; 37.2 µM (inactive) with UACC-257; 31.9 µM (inactive) in the assay on RPMI-8226; 23.3 µM (inactive) in the assay on M19-MEL. Moreover, the GI50 is > 100 µM (inactive) in the assay on OVCAR-5; > 100 µM (inactive) in the assay on SK-OV-3; > 100 µM (inactive) in the assay with A498; 17.4 µM (inactive) in the assay on SW-620; > 100 µM (inactive) in the assay on SNB-19.

Regarding `O=C(CSc1nc(-c2ccccc2)c(-c2ccccc2)[nH]1)N/N=C/c1ccc(O)cc1`, the GI50 in the assay on SR was 16.4 µM (inactive); with U-251 it was 20.3 µM (inactive); with ACHN, 22.1 µM (inactive); with A549 it was 24.2 µM (inactive); in the assay with SN12C, 26.4 µM (inactive); in the assay on SNB-75, 19.7 µM (inactive). In addition, the GI50 is 31.3 µM (inactive) with NCI-H226; 23.3 µM (inactive) in the assay with CCRF-CEM; 28.1 µM (inactive) in the assay with UO-31; 26.4 µM (inactive) in the assay on IGROV-1; 4.86 µM (inactive) with UACC-257; 25.7 µM (inactive) with RPMI-8226. Further, the GI50 was 19.4 µM (inactive) in the assay on M19-MEL, 24.8 µM (inactive) in the assay on SK-OV-3, 30.8 µM (inactive) with SW-620 and 32.5 µM (inactive) in the assay on SNB-19.

On to `Cc1cc(NS(=O)(=O)c2ccc(NC(=O)c3cccc4c(N)c5ccccc5nc34)cc2)no1`, for which the GI50 in the assay on U-251 was 26.6 µM (inactive); in the assay on CAKI-1, 34.8 µM (inactive); in the assay on ACHN it was 20 µM (inactive); with A549 it was > 100 µM (inactive); in the assay on SN12C, 19.2 µM (inactive); in the assay on SNB-75, 68.7 µM (inactive). Besides, the GI50 in the assay with NCI-H226 is 17.7 µM (inactive); in the assay with CCRF-CEM it was 21.4 µM (inactive); with UO-31, 33.3 µM (inactive); with IGROV-1 it was 27.5 µM (inactive); in the assay with RPMI-8226, 24 µM (inactive); with M19-MEL, 21.2 µM (inactive). The GI50 with OVCAR-5 is 28.8 µM (inactive); in the assay with SK-OV-3, 32.5 µM (inactive); in the assay on A498 it was 19.4 µM (inactive); in the assay with SW-620, 30 µM (inactive); in the assay on SNB-19 it was 17.4 µM (inactive).

As for `O=C1CCCc2ccc([N+](=O)[O-])c(O)c21`, the GI50 is 85.7 µM (inactive) in the assay with SR; 59.3 µM (inactive) in the assay with U-251; 37.9 µM (inactive) in the assay on CAKI-1; 48.9 µM (inactive) with ACHN; 96.2 µM (inactive) in the assay on A549; 65 µM (inactive) in the assay with SN12C. In addition, the GI50 is 45.6 µM (inactive) in the assay on SNB-75; 40.8 µM (inactive) in the assay with NCI-H226; > 100 µM (inactive) in the assay with CCRF-CEM; 34.8 µM (inactive) in the assay with UO-31; 82.6 µM (inactive) with IGROV-1; > 100 µM (inactive) in the assay with UACC-257. For the same molecule, the GI50 in the assay with M19-MEL is > 100 µM (inactive); in the assay with OVCAR-5, 59.8 µM (inactive); in the assay with SK-OV-3 it was > 100 µM (inactive); with A498 it was 50.7 µM (inactive); in the assay on SW-620, > 100 µM (inactive); with SNB-19, 82.6 µM (inactive).

For the molecule `COC(=O)c1cccc2cccc(C(=O)Nc3ccc(Cl)cc3)c12`, the GI50 was 17.1 µM (inactive) in the assay on SR; 39.7 µM (inactive) in the assay on U-251; > 100 µM (inactive) in the assay on CAKI-1; 2.92 µM (inactive) with ACHN; > 78.2 µM (inactive) in the assay on A549; > 100 µM (inactive) with SN12C. For the same molecule, the GI50 in the assay with SNB-75 was > 100 µM (inactive); in the assay on NCI-H226, > 100 µM (inactive); in the assay with CCRF-CEM it was 2.26 µM (inactive); with UO-31 it was 2.94 µM (inactive); in the assay on UACC-257, > 100 µM (inactive); in the assay with RPMI-8226 it was 2.09 µM (inactive). Besides, the GI50 is 4.35 µM (inactive) in the assay with M19-MEL; > 86.9 µM (inactive) in the assay with OVCAR-5; > 100 µM (inactive) in the assay with SK-OV-3; 36.1 µM (inactive) in the assay on A498; 11.4 µM (inactive) in the assay on SW-620; > 100 µM (inactive) with SNB-19.

As for `NC1=C2C(Br)=CN([C@@H]3O[C@H](CO)[C@@H](O)[C@@H]3O)C2C(=O)N=N1` (some centres undefined), the GI50 was 0.475 µM (active) with SR; 8.79 µM (inactive) in the assay on U-251; 0.396 µM (active) in the assay on CAKI-1; 9.04 µM (inactive) in the assay on ACHN; 2.67 µM (inactive) with A549; 1.64 µM (inactive) in the assay on SN12C. Moreover, the GI50 is 3.78 µM (inactive) in the assay on SNB-75; 18.2 µM (inactive) in the assay with NCI-H226; 0.526 µM (active) in the assay with CCRF-CEM; 4.85 µM (inactive) in the assay with UO-31; 3.99 µM (inactive) with IGROV-1; 22.4 µM (inactive) in the assay on UACC-257. The GI50 with RPMI-8226 was 1.94 µM (inactive); in the assay with M19-MEL, 15.5 µM (inactive); in the assay with OVCAR-5, 2.28 µM (inactive); in the assay with SK-OV-3, 30.5 µM (inactive); with A498, 40.4 µM (inactive); in the assay on SW-620, 1.15 µM (inactive). Moreover, in the assay with SNB-19, the GI50 was 43.1 µM (inactive).

Turning to `C[N+](C)(C)CC1CCCC/C1=N\OC(=O)c1ccccc1` (centres undefined), the GI50 with SR, with U-251, with CAKI-1, in the assay on ACHN, in the assay with A549 and with SN12C was > 100 µM (inactive) each time. Also, the GI50 in the assay with SNB-75, in the assay on CCRF-CEM, with UO-31, in the assay with IGROV-1, with UACC-257 and with RPMI-8226 was > 100 µM (inactive) in each case. For the same molecule, the GI50 in the assay with M19-MEL, in the assay on OVCAR-5, in the assay on SK-OV-3, with SW-620 and in the assay with SNB-19 was > 100 µM (inactive) each time.

The values above are taken from ChEMBL document CHEMBL1201862, “PubChem BioAssay data set” (2004).
